Measured values as given in paper PMC10364322, “Evaluation of chronic drug-induced electrophysiological and cytotoxic effects using human-induced pluripotent stem cell-derived cardiomyocytes (hiPSC-CMs)” (Frontiers in Pharmacology, 2023).
Read-outs that look alike come from different tables or passages of the source.

Test system: hiPSC-CMs (iCell-Cardiomyocytes^2)
Experimental: Cells were seeded according to the instructions of the cell provider, in fibronectin-coated 48-well MEA plates (Axion Cytoview Plates, M768-tMEA-48B) at a density suited to form a monolayer (i.e., 50 K/well) and maintained in culture in a stage incubator (37°C, 5% CO2).
At least 4 h before the beginning of the baseline measurements, a full medium exchange was performed (to a final volume of 400 µL per well). Neat compounds were dissolved in 100% DMSO at a stock concentration 1000-fold the highest target concentration. […] Afterwards, these stock solutions were diluted with Maintenance medium (CDi), to 10-fold the intended concentration. The final DMSO concentration in test solutions and vehicle control was 0.1%.
Spontaneous electrical activity was recorded in hiPSC-CMs monolayers as field potentials using the Maestro Pro MEA instrument (Axion Biosystems, Atlanta, GA, United States), which allows the maintenance of accurate temperature and CO2 levels (37°C, 5% CO2). After the plate was placed in the Maestro Pro and allowed to equilibrate for about 10 min, baseline acquisition of field potential and impedance signals was initiated and lasted for 5 min each. […] As impedance measures resistance of an applied alternating current through the hiPSC-CMs monolayer, a reduction in the attachment of hiPSC-CMs to the bottom of the well due to cell death or changes in the monolayer morphology, causes a drop in the impedance signal.
The potential presence of various arrhythmic events was evaluated and noted during the data analysis.
After the acquisition of all timepoint measurements, raw data were loaded into the data analysis software Axion Cardiac Analysis Tool (V.3.2.3). […] A.csv file containing information on the FP parameters per well, per time point, was then generated and used as input to the in-house data management system (SPEcII v.3.4, Unlimit-IT, Geel, Belgium), where descriptive statistics were calculated. Summary values at different time points after compound addition are expressed as percent change from baseline and shown as mean ± standard deviation (SD).
The nonparametric Wilcoxon-Mann Whitney Test was used to compare the percent change from the baseline (Δ%) value between the group treated with the compound at a given concentration and the group treated with the DMSO at each matching time points. A two-sided test at 5% significance level was considered. […] To assess the physiological relevance of changes, a tolerance interval of DMSO experiments was calculated at each time point, for each parameter. […] TIs indicate an interval where, with a certain confidence level (1- α = 0.95), a specified proportion (p = 0.80) of percent change for DMSO data falls. The lower and upper limits based on the TI values were used as cut-offs for the interpretation of the changes. For the cytotoxicity assays, measurements of fluorescence (after background fluorescence subtraction) from wells treated with the compounds were normalized by the average value of vehicle experiments (DMSO 0.1%) to obtain a DMSO-corrected, delta/delta percent change. Experiments from each condition, as delta/delta percent, were averaged and expressed as mean ± SD. Statistical analysis was performed using a non-parametric test (Kruskal-Wallis) and each treatment condition was compared to the relative DMSO 0.1%. Differences were considered statistically significant when the p-value was smaller than 0.05.

`COc1cc2c(Nc3ccc(Br)cc3F)ncnc2cc1OCC1CCN(C)CC1` [Vandetanib] was tested, and the “Cessation of beating, number of observations/total well numbers” value (0.3 µM, 48h) was 0/5, the “EAD, number of observations/total well numbers” value (0.3 µM, 48h) was 0/5 and the “FPDc (field-potential duration corrected by beat-rate), % change from baseline” value (“FPDc … % change from baseline” for short) (0.3 µM, 48h) was 99.2±21.9 %. The “Flat T-wave-like, number of observations/total well numbers” value (0.3 µM, 48h) was 1/5, the “BR (beating rate), % change from baseline” value (from here on “BR (beating rate), % change”) (0.3 µM, 72h) was -40±3 % and the “Beating below threshold, number of observations/total well numbers” value (0.3 µM, 72h) was 0/5. For the same compound, the “Cessation of beating, number of observations/total well numbers” value (0.3 µM, 72h) was 0/5, the “EAD, number of observations/total well numbers” value (0.3 µM, 72h) was 0/5 and the “FPDc … % change from baseline” value (0.3 µM, 72h) was 126.3±24.4 %. The “Flat T-wave-like, number of observations/total well numbers” value (0.3 µM, 72h) was 1/5, the “BR (beating rate), % change” value (0.3 µM, 96h) was -43±6 % and the “Beating below threshold, number of observations/total well numbers” value (0.3 µM, 96h) was 0/5. The “Cessation of beating, number of observations/total well numbers” value (0.3 µM, 96h) was 0/5, the “EAD, number of observations/total well numbers” value (0.3 µM, 96h) was 0/5 and the “FPDc … % change from baseline” value (0.3 µM, 96h) was 144.1±35.5 %. For the same compound, the “Flat T-wave-like, number of observations/total well numbers” value (0.3 µM, 96h) was 1/5, the “BR (beating rate), % change” value (1 µM, 2h) was -28±5 % and the “Beating below threshold, number of observations/total well numbers” value (1 µM, 2h) was 0/5. The “Cessation of beating, number of observations/total well numbers” value (1 µM, 2h) was 0/5, the “EAD, number of observations/total well numbers” value (1 µM, 2h) was 0/5 and the “FPDc … % change from baseline” value (1 µM, 2h) was 110.2±0 %. The “Flat T-wave-like, number of observations/total well numbers” value (1 µM, 2h) was 4/5, the “BR (beating rate), % change” value (1 µM, 24h) was -59±5 % and the “Beating below threshold, number of observations/total well numbers” value (1 µM, 24h) was 0/5. For the same compound, the “Cessation of beating, number of observations/total well numbers” value (1 µM, 24h) was 0/5, the “EAD, number of observations/total well numbers” value (1 µM, 24h) was 1/5 and the “Flat T-wave-like, number of observations/total well numbers” value (1 µM, 24h) was 5/5. For the same compound, the “BR (beating rate), % change” value (1 µM, 48h) was -65±2 %, the “Beating below threshold, number of observations/total well numbers” value (1 µM, 48h) was 0/5 and the “Cessation of beating, number of observations/total well numbers” value (1 µM, 48h) was 0/5. For the same compound, the “EAD, number of observations/total well numbers” value (1 µM, 48h) was 2/5, the “Flat T-wave-like, number of observations/total well numbers” value (1 µM, 48h) was 5/5 and the “BR (beating rate), % change” value (1 µM, 72h) was -68±2 %. For the same compound, the “Beating below threshold, number of observations/total well numbers” value (1 µM, 72h) was 1/5, the “Cessation of beating, number of observations/total well numbers” value (1 µM, 72h) was 1/5 and the “EAD, number of observations/total well numbers” value (1 µM, 72h) was 0/5. For the same compound, the “Flat T-wave-like, number of observations/total well numbers” value (1 µM, 72h) was 3/5, the “BR (beating rate), % change” value (1 µM, 96h) was -68±0 % and the “Beating below threshold, number of observations/total well numbers” value (1 µM, 96h) was 0/5. For the same compound, the “Cessation of beating, number of observations/total well numbers” value (1 µM, 96h) was 4/5, the “EAD, number of observations/total well numbers” value (1 µM, 96h) was 0/5 and the “Flat T-wave-like, number of observations/total well numbers” value (1 µM, 96h) was 1/5. The “time point from which cessation of beating occurred in all wells” value (3 µM) was 24 h, the “Beating below threshold, number of observations/total well numbers” value (3 µM, 72h) was 0/5 and the “Cessation of beating, number of observations/total well numbers” value (3 µM, 72h) was 5/5. For the same compound, the “EAD, number of observations/total well numbers” value (3 µM, 72h) was 0/5, the “Flat T-wave-like, number of observations/total well numbers” value (3 µM, 72h) was 0/5 and the “Beating below threshold, number of observations/total well numbers” value (3 µM, 96h) was 0/5. The “Cessation of beating, number of observations/total well numbers” value (3 µM, 96h) was 5/5, the “EAD, number of observations/total well numbers” value (3 µM, 96h) was 0/5 and the “Flat T-wave-like, number of observations/total well numbers” value (3 µM, 96h) was 0/5. For the same compound, the “BR (beating rate), % change” value (3 µM, 2h) was -58±4 %, the “Beating below threshold, number of observations/total well numbers” value (3 µM, 2h) was 0/5 and the “Cessation of beating, number of observations/total well numbers” value (3 µM, 2h) was 0/5. The “EAD, number of observations/total well numbers” value (3 µM, 2h) was 0/5, the EAD-like events (3 µM, 2h) was “EAD-like events occurred” and the “Flat T-wave-like, number of observations/total well numbers” value (3 µM, 2h) was 5/5. For the same compound, the “BR (beating rate), % change” value (3 µM, 24h) was -71±1 %, the “Beating below threshold, number of observations/total well numbers” value (3 µM, 24h) was 0/5 and the “Cessation of beating, number of observations/total well numbers” value (3 µM, 24h) was 3/5. The “EAD, number of observations/total well numbers” value (3 µM, 24h) was 0/5, the “Flat T-wave-like, number of observations/total well numbers” value (3 µM, 24h) was 2/5 and the “Beating below threshold, number of observations/total well numbers” value (3 µM, 48h) was 1/5. For the same compound, the “Cessation of beating, number of observations/total well numbers” value (3 µM, 48h) was 4/5, the “EAD, number of observations/total well numbers” value (3 µM, 48h) was 0/5 and the “Flat T-wave-like, number of observations/total well numbers” value (3 µM, 48h) was 0/5.
